Test results: ChEMBL document CHEMBL1146350, “Synthesis of some new bioactive 3-amino-2-mercapto-5,6,7,8-tetrahydro[1]benzothieno[2,3-d]pyrimidin-4(3H)-one derivatives” (2007)
≈ marks a conversion by molar mass, not a printed value. Calls of active or inactive are those of the source. The rule behind the calls is not given here.

Assays:
[1] = tested on: Klebsiella pneumoniae; assay: Antibacterial activity against Klebsiella pneumoniae by disc diffusion method; format: functional; settings: for MIC: Klebsiella pneumoniae
[2] = tested on: Mus musculus; assay: Anticonvulsant activity in Swiss Albino mouse assessed as duration of seizure at 50 mg/kg, po by PTZ induced seizure test; format: functional
[3] = tested on: Aspergillus fumigatus; assay: Antifungal activity against Aspergillus fumigatus NCIM 902 by serial plate dilution method; format: functional; settings: for MIC: Aspergillus fumigatus, NCIM 902
[4] = tested on: Escherichia coli; assay: Antibacterial activity against Escherichia coli ATCC 25922 by disc diffusion method; format: functional; settings: for MIC: Escherichia coli, ATCC 25922
[5] = tested on: Aspergillus flavus; assay: Antifungal activity against Aspergillus flavus NCIM 524 by serial plate dilution method; format: functional; settings: for MIC: Aspergillus flavus, NCIM 524
[6] = tested on: Pseudomonas aeruginosa; assay: Antibacterial activity against Pseudomonas aeruginosa ATCC 27853 by disc diffusion method; format: functional; settings: for MIC: Pseudomonas aeruginosa, ATCC 27853
[7] = tested on: Staphylococcus aureus; assay: Antibacterial activity against Staphylococcus aureus ATCC 25923 by disc diffusion method; format: functional; settings: for MIC: Staphylococcus aureus, ATCC 25923, read-out: MIC
[8] = tested on: Mus musculus; assay: Anticonvulsant activity in Swiss Albino mouse assessed as duration of seizure at 2 mg/kg, po by PTZ induced seizure test; format: functional
[9] = tested on: Mus musculus; assay: Anticonvulsant activity in Swiss Albino mouse assessed as mortality at 50 mg/kg, po by PTZ induced seizure test; format: functional, organism-based; set-up: dose 50 mg/kg
[10] = tested on: Talaromyces marneffei; assay: Antifungal activity against Penicillium marneffei by serial plate dilution method; format: functional; settings: for MIC: Talaromyces marneffei
[11] = tested on: Rattus norvegicus; assay: Antiinflammatory activity in Wister Albino rat assessed as inhibition of paw edema at 50 mg/kg, po after 3hrs; format: functional
[12] = tested on: Trichophyton benhamiae; assay: Antifungal activity against Trichophyton mentagrophytes by serial plate dilution method; format: functional, Arthroderma benhamiae; settings: for MIC: Trichophyton benhamiae
[13] = tested on: Rattus norvegicus; assay: Antiinflammatory activity in Wister Albino rat assessed as inhibition of paw edema at 1.5 mg/kg, po after 3hrs; format: functional
[14] = tested on: Mus musculus; assay: Anticonvulsant activity in Swiss Albino mouse assessed as latency period at 50 mg/kg, po by PTZ induced seizure test; format: functional, organism-based; set-up: dose 50 mg/kg
[15] = tested on: Mus musculus; assay: Antianxiety study in Swiss Albino mouse assessed as ratio of number of entreis in open arm to total entries at 50 mg/kg by elevated plus maze test; format: functional
[16] = organism: Mus musculus; assay: Effect on learning and memory in Swiss Albino mouse assessed as latent period on second day; format: functional
[17] = organism: Mus musculus; assay: Effect on learning and memory in Swiss Albino mouse assessed as latent period on first day; format: functional
[18] = tested on: Mus musculus; assay: Antianxiety study in Swiss Albino mouse assessed as time spent in close arm at 50 mg/kg by elevated plus maze model; format: functional
[19] = tested on: Mus musculus; assay: Antianxiety study in Swiss Albino mouse assessed as time spent in open arm at 50 mg/kg by elevated plus maze model; format: functional
[20] = tested on: Mus musculus; assay: Effect on coordination in Swiss Albino mouse at 50 mg/kg by rotarod accelorod test; format: functional

Compound	inhibition zone (IZ) [1] [mm]	MIC [1] [µg/mL]	Activity [2] [s]	inhibition zone (IZ) [3] [mm]	MIC [3] [µg/mL]	inhibition zone (IZ) [4] [mm]	MIC [4] [µg/mL]	inhibition zone (IZ) [5] [mm]	MIC [5] [µg/mL]	inhibition zone (IZ) [6] [mm]	MIC [6] [µg/mL]	inhibition zone (IZ) [7] [mm]	MIC [7] [µg/mL]	Activity [8] [s]	Activity [9]	inhibition zone (IZ) [10] [mm]	MIC [10] [µg/mL]	inhibition in vivo at 50 mg/kg [11] [%]	inhibition zone (IZ) [12] [mm]	MIC [12] [µg/mL]	other results
O=c1c2c3c(sc2nc2sc(-c4ccccc4)nn12)CCCC3	16	60 (≈ 177 µM)	65	18	12.5 (≈ 36.8 µM)	9	100 (≈ 295 µM)	7	> 100	18	60 (≈ 177 µM)	18	60 (≈ 177 µM)	58	inactive	16	12.5 (≈ 36.8 µM)	24.4	7	> 100	–
Nn1c(SCC(=O)c2ccccc2)nc2sc3c(c2c1=O)CCCC3	8	> 100	–	8	> 100	8	> 100	10	80 (≈ 215 µM)	8	> 100	18	12.5 (≈ 33.6 µM)	–	–	6	> 100	4.44	8	> 100	–
COc1ccc2c(c1)c(CC(=O)O)c(C)n2C(=O)c1ccc(Cl)cc1 [INDOMETHACIN]	–	–	–	–	–	–	–	–	–	–	–	–	–	–	–	–	–	–	–	–	inhibition in vivo at 1.5 mg/kg [13]: 53.3%
CCCc1nn2c(=O)c3c4c(sc3nc2s1)CCCC4	26	6.25 (≈ 20.5 µM)	75	26	< 6.25	18	10 (≈ 32.7 µM)	28	< 6.25	22	10 (≈ 32.7 µM)	20	10 (≈ 32.7 µM)	73	inactive	19	12.5 (≈ 40.9 µM)	30.8	6	> 100	–
O=c1c2c3c(sc2nc2sc(-c4ccc([N+](=O)[O-])cc4)nn12)CCCC3	20	10 (≈ 26 µM)	40	5	> 100	8	> 100	10	80 (≈ 208 µM)	9	100 (≈ 260 µM)	8	> 100	56	inactive	6	> 100	48.9	6	> 100	–
Cc1cccc(-c2nn3c(=O)c4c5c(sc4nc3s2)CCCC5)c1	10	80 (≈ 226 µM)	220	18	12.5 (≈ 35.4 µM)	8	> 100	6	> 100	20	10 (≈ 28.3 µM)	20	10 (≈ 28.3 µM)	51	inactive	18	12.5 (≈ 35.4 µM)	51.1	4	> 100	–
CN1C(=O)CN=C(c2ccccc2)c2cc(Cl)ccc21	–	–	–	–	–	–	–	–	–	–	–	–	–	–	–	–	–	–	–	–	Activity [14]: Active
Nn1c(SCC(=O)c2cc3ccccc3oc2=O)nc2sc3c(c2c1=O)CCCC3	22	< 6.25	30	8	> 100	18	12.5 (≈ 28.4 µM)	12	80 (≈ 182 µM)	8	> 100	22	6.25 (≈ 14.2 µM)	56	inactive	6	> 100	6.67	8	> 100	–
Cc1nn2c(=O)c3c4c(sc3nc2s1)CCCC4	20	10 (≈ 36.1 µM)	0	16	12.5 (≈ 45.1 µM)	18	10 (≈ 36.1 µM)	12	80 (≈ 288 µM)	22	6.25 (≈ 22.5 µM)	20	10 (≈ 36.1 µM)	3600	Active	16	12.5 (≈ 45.1 µM)	34.6	7	> 100	Activity [15]: 16.67%; Activity [16]: 25 s; Activity [17]: 39 s; Activity [18]: 285 s; Activity [19]: 4 s; Activity [20]: 284 s
O=c1c2c3c(sc2nc2sc(=S)[nH]n12)CCCC3	–	–	39	–	–	–	–	–	–	–	–	–	–	56	inactive	–	–	7.69	–	–	–
CCc1nn2c(=O)c3c4c(sc3nc2s1)CCCC4	22	10 (≈ 34.3 µM)	185	6	> 100	10	80 (≈ 275 µM)	8	> 100	18	10 (≈ 34.3 µM)	8	> 100	110	inactive	6	> 100	51.1	6	> 100	–
Cc1cc(C)cc(-c2nn3c(=O)c4c5c(sc4nc3s2)CCCC5)c1	20	10 (≈ 27.2 µM)	0	18	12.5 (≈ 34 µM)	16	60 (≈ 163 µM)	7	> 100	18	60 (≈ 163 µM)	8	> 100	68	Active	18	12.5 (≈ 34 µM)	31.1	9	80 (≈ 218 µM)	Activity [15]: 7.14%; Activity [16]: 18 s; Activity [17]: 34 s; Activity [18]: 231 s; Activity [19]: 56 s; Activity [20]: 256 s
Nn1c(SCC(=O)c2ccc(O)c(O)c2)nc2sc3c(c2c1=O)CCCC3	10	80 (≈ 198 µM)	270	8	> 100	10	80 (≈ 198 µM)	6	> 100	16	60 (≈ 149 µM)	16	60 (≈ 149 µM)	62	inactive	6	> 100	–	8	> 100	–
